# Results taken from patent US4065616A, “Processes for production of a 1-N-(α-hydroxy-.PHI.-amino alkanoyl)-3-deoxy-5-O-pentafuranosyl neamine and new compounds produced by the same processes” (Zaidan Hojin Biseibutsu Kagaku Kenkyu Kai, priority 1975, dated 1977).
# Tests used:
# Bacillus subtilis B-558 = test: M.I.C. by standard serial dilution method; format: cell-based; details: B558, B. subtilis B-558, nutrient agar, 37° C, 18 hours, read-out: minimum inhibitory concentration (M.I.C.)
# Experimental: (§1) These particular compounds, that is, 1-n-(α-hydroxy-ω-aminoalkanoyl)-3'-deoxy-5-O-pentofuranosylneamines according to the aforesaid general formula (I) have useful antibacterial activity against a wide variety of bacteria, including gram-negative bacteria and gram-positive bacteria. The minimum inhibitory concentration (M.I.C.) (mcg/ml) of these compounds against various organisms was determined by a standard serial dilution method at an incubation temperature of 37° C, the estimation being made after 18 hours incubation or each test organism, except that the incubation time was 48 hours for Mycobacterium smegmatis. The incubation medium used was nutrient agar.
# [1] = test system: Escherichia coli K-12 JR66/W677; test: M.I.C. by standard serial dilution method; format: cell-based; details: K12JR66/W677, 18 h, read-out: minimum inhibitory concentration (M.I.C.)
# Experimental: as §1
# [2] = test system: Escherichia coli K-12 LA 290 R55; test: M.I.C. by standard serial dilution method; format: cell-based; details: K12LA290R55, 18 h, read-out: minimum inhibitory concentration (M.I.C.)
# Experimental: as §1
# [3] = test system: Escherichia coli K-12 LA 290 R56; test: M.I.C. by standard serial dilution method; format: cell-based; details: K12LA290R56, 18 h, read-out: minimum inhibitory concentration (M.I.C.)
# Experimental: as §1
# [4] = test system: Escherichia coli K-12 LA 290 R64; test: M.I.C. by standard serial dilution method; format: cell-based; details: K12LA290R64, 18 h, read-out: minimum inhibitory concentration (M.I.C.)
# Experimental: as §1
# [5] = test system: Escherichia coli K-12 ML 1410 R81; test: M.I.C. by standard serial dilution method; format: cell-based; details: 18 h, read-out: minimum inhibitory concentration (M.I.C.)
# Experimental: as §1
# [6] = test system: Escherichia coli K-12 ML 1410; test: M.I.C. by standard serial dilution method; format: cell-based; details: K12ML1410, E. coli K-12 ML 1410, nutrient agar, 37° C, 18 hours, read-out: minimum inhibitory concentration (M.I.C.)
# Experimental: as §1
# [7] = test system: Escherichia coli K-12 ML 1629; test: M.I.C. by standard serial dilution method; format: cell-based; details: K12ML1629, E. coli K-12 ML 1629, nutrient agar, 37° C, 18 hours, read-out: minimum inhibitory concentration (M.I.C.)
# Experimental: as §1
# [8] = test system: Escherichia coli K-12 ML 1630; test: M.I.C. by standard serial dilution method; format: cell-based; details: K12ML1630, E. coli K-12 ML 1630, nutrient agar, 37° C, 18 hours, read-out: minimum inhibitory concentration (M.I.C.)
# Experimental: as §1
# [9] = test system: Escherichia coli K-12 W677; test: M.I.C. by standard serial dilution method; format: cell-based; details: K12W677, E. coli K-12 W677, nutrient agar, 37° C, 18 hours, read-out: minimum inhibitory concentration (M.I.C.)
# Experimental: as §1
# Escherichia coli K-12 = test: M.I.C. by standard serial dilution method; format: cell-based; details: K12, E. coli K-12, nutrient agar, 37° C, 18 hours, read-out: minimum inhibitory concentration (M.I.C.)
# Experimental: as §1
# Escherichia coli NIHJ = test: M.I.C. by standard serial dilution method; format: cell-based; details: E. coli NIHJ, nutrient agar, 37° C, 18 hours, read-out: minimum inhibitory concentration (M.I.C.)
# Experimental: as §1
# [10] = test system: Klebsiella pneumoniae PCI 602; test: M.I.C. by standard serial dilution method; format: cell-based; details: PCI602, K. pneumoniae PCI 602, nutrient agar, 37° C, 18 hours, read-out: minimum inhibitory concentration (M.I.C.)
# Experimental: as §1
# [11] = test system: Klebsiella pneumoniae Type 22, No. 3038; test: M.I.C. by standard serial dilution method; format: cell-based; details: K. pneumoniae Type 22, No. 3038, nutrient agar, 37° C, 18 hours, read-out: minimum inhibitory concentration (M.I.C.)
# Experimental: as §1
# [12] = test system: Mycobacterium smegmatis ATCC 607; test: M.I.C. by standard serial dilution method; format: cell-based; details: Mycolicibacterium smegmatis, ATCC607, nutrient agar, 37° C, 48 hours, read-out: minimum inhibitory concentration (M.I.C.)
# Experimental: as §1
# Proteus rettgeri GN 311 = test: M.I.C. by standard serial dilution method; format: cell-based; details: Providencia rettgeri, GN311, nutrient agar, 37° C, 18 hours, read-out: minimum inhibitory concentration (M.I.C.)
# Experimental: as §1
# Proteus rettgeri GN 466 = test: M.I.C. by standard serial dilution method; format: cell-based; details: Providencia rettgeri, GN466; Proteus rettgeri GN 466; nutrient agar, 37° C, 18 hours; read-out: minimum inhibitory concentration (M.I.C.)
# Experimental: as §1
# [13] = test system: Pseudomonas aeruginosa 99; test: M.I.C. by standard serial dilution method; format: cell-based; details: P. aeruginosa 99, nutrient agar, 37° C, 18 hours, read-out: minimum inhibitory concentration (M.I.C.)
# Experimental: as §1
# [14] = test system: Pseudomonas aeruginosa A3; test: M.I.C. by standard serial dilution method; format: cell-based; details: P. aeruginosa A3, nutrient agar, 37° C, 18 hours, read-out: minimum inhibitory concentration (M.I.C.)
# Experimental: as §1
# [15] = test system: Pseudomonas aeruginosa GN 315; test: M.I.C. by standard serial dilution method; format: cell-based; details: GN315, P. aeruginosa GN 315, nutrient agar, 37° C, 18 hours, read-out: minimum inhibitory concentration (M.I.C.)
# Experimental: as §1
# [16] = test system: Pseudomonas aeruginosa No. 12; test: M.I.C. by standard serial dilution method; format: cell-based; details: P. aeruginosa No. 12, nutrient agar, 37° C, 18 hours, read-out: minimum inhibitory concentration (M.I.C.)
# Experimental: as §1
# [17] = test system: Pseudomonas aeruginosa TI-13; test: M.I.C. by standard serial dilution method; format: cell-based; details: TI13, P. aeruginosa TI-13, nutrient agar, 37° C, 18 hours, read-out: minimum inhibitory concentration (M.I.C.)
# Experimental: as §1
# Salmonella typhosa T-63 = test: M.I.C. by standard serial dilution method; format: cell-based; details: Salmonella enterica, 18 h, read-out: minimum inhibitory concentration (M.I.C.)
# Experimental: as §1
# Sarcina lutea PCl 1001 = test: M.I.C. by standard serial dilution method; format: cell-based; details: Micrococcus luteus, PCL1001, nutrient agar, 37° C, 18 hours, read-out: minimum inhibitory concentration (M.I.C.)
# Experimental: as §1
# [18] = test system: Staphylococcus aureus FDA 209P; test: M.I.C. by standard serial dilution method; format: cell-based; details: FDA209P, S. aureus FDA 209P, nutrient agar, 37° C, 18 hours, read-out: minimum inhibitory concentration (M.I.C.)
# Experimental: as §1
# [19] = test system: kanamycin-resistant bacteria; details: in words, prior work; cited from earlier work
Structure (SMILES),MIC (Bacillus subtilis B-558) [µg/mL],MIC [1] [µg/mL],MIC [2] [µg/mL],MIC [3] [µg/mL],MIC [4] [µg/mL],MIC [5] [µg/mL],MIC [6] [µg/mL],MIC [7] [µg/mL],MIC [8] [µg/mL],MIC [9] [µg/mL],MIC (Escherichia coli K-12) [µg/mL],MIC (Escherichia coli NIHJ) [µg/mL],MIC [10] [µg/mL],MIC [11] [µg/mL],MIC [12] [µg/mL],MIC (Proteus rettgeri GN 311) [µg/mL],MIC (Proteus rettgeri GN 466) [µg/mL],MIC [13] [µg/mL],MIC [14] [µg/mL],antibacterial activity against resistant bacteria [19],other results
"NCC[C@H](O)C(=O)N[C@@H]1C[C@H](N)[C@@H](O[C@H]2O[C@H](CN)[C@@H](O)C[C@H]2N)[C@H](O[C@@H]2O[C@H](CN)[C@H](O)[C@H]2O)[C@H]1O [compound 4, 1-N-((S)-4-amino-2-hydroxybutyryl)-5-O-(5-amino-5-deoxy-β-D-xylofuranosyl)-3'-doxyneamine]",0.2,0.2,0.39,0.78,0.39,0.78,0.78,0.39,0.78,0.39,0.2,0.2,0.39,0.39,0.2,3.12,0.78,3.12,0.39,–,MIC [15]: > 100 µg/mL; MIC [16]: 3.12 µg/mL; MIC [17]: 3.12 µg/mL; MIC (Salmonella typhosa T-63): 0.2 µg/mL; MIC (Sarcina lutea PCl 1001): 3.12 µg/mL; MIC [18]: 0.39 µg/mL
NCC(O)C(=O)N[C@@H]1C[C@H](N)[C@@H](O[C@H]2O[C@H](CN)[C@@H](O)[C@H](O)[C@H]2O)[C@H](O)[C@H]1O[C@H]1O[C@H](CO)[C@@H](O)[C@H](N)[C@H]1O (some centres unmarked) [1-N-isoserylkanamycin],–,–,–,–,–,–,–,–,–,–,–,–,–,–,–,–,–,–,–,active against the kanamycin-resistant bacteria,–
NC[C@H]1O[C@H](O[C@H]2[C@H](O)[C@@H](O[C@H]3O[C@H](CO)[C@@H](O)[C@H](N)[C@H]3O)[C@H](N)C[C@@H]2N)[C@H](O)C[C@@H]1O [3'-deoxykanamycin A],–,–,–,–,–,–,–,–,–,–,–,–,–,–,–,–,–,–,–,high antibacterial activity against the above-mentioned resistant bacteria,–
"NCC[C@H](O)C(=O)N[C@@H]1C[C@H](N)[C@@H](O[C@H]2O[C@H](CN)[C@@H](O)C[C@H]2N)[C@H](O[C@@H]2O[C@H](CO)[C@H](O)[C@H]2O)[C@H]1O [compound 6, 1-N-((S)-4-amino-2-hydroxybutyryl)-3'-deoxy-5-O-β-D-xylofuranosylneamine]",0.2,0.39,0.78,0.39,0.2,1.56,1.56,0.39,0.78,0.39,0.39,0.78,0.39,0.39,0.2,3.12,0.78,12.5,3.12,–,MIC [15]: > 100 µg/mL; MIC [16]: 25 µg/mL; MIC [17]: 25 µg/mL; MIC (Salmonella typhosa T-63): 0.78 µg/mL; MIC (Sarcina lutea PCl 1001): 25 µg/mL; MIC [18]: 0.39 µg/mL
NCC(O)C(=O)N[C@@H]1C[C@H](N)[C@@H](O[C@H]2O[C@H](CN)CC[C@H]2N)[C@H](O)[C@H]1O[C@H]1O[C@H](CO)[C@@H](O)[C@H](N)[C@H]1O (some centres unmarked) [1-N-isoseryl-DKB],–,–,–,–,–,–,–,–,–,–,–,–,–,–,–,–,–,–,–,active against the kanamycin-resistant bacteria,–
